Earlier results on one compound are cited in patent US20120263775A1, “PRODUCTION OF PESTICIDE GRANULATES IN A SPOUTED BED APPARATUS” (priority 2009, published 2012).

In brackets after ≈: the same amount, converted by molar mass.

Turning to `COC(=O)N(OC)c1ccccc1COc1ccn(-c2ccc(Cl)cc2)n1` [Pyraclostrobin, pyraclostrobin], the solubility in water was 2 µg/mL (≈ 5.16 µM).
